Test results as given in publication PMC9574929, “Development of Hydrogen Sulfide-Releasing Carbonic Anhydrases IX- and XII-Selective Inhibitors with Enhanced Antihyperalgesic Action in a Rat Model of Arthritis” (Journal of Medicinal Chemistry, 2022).

Tests used:
[1] = target: hCA I (Homo sapiens, UniProt P00915); test: Stopped-flow CO2 hydrase assay, hCA I
Experimental: (§1) The uncatalyzed rates were determined in the same manner and subtracted from the total observed rates. Stock solutions of inhibitor (0.1 mM) were prepared in distilled-deionized water and dilutions up to 0.01 nM were done thereafter with the assay buffer. […] The inhibition constants were obtained by nonlinear least-squares methods using PRISM 3 and the Cheng–Prusoff equation, as reported earlier,[39] and represent the mean from at least three different determinations.

[2] = target: hCA IV (Homo sapiens, UniProt P22748); test: Stopped-flow CO2 hydrase assay, hCA IV; conditions: for SI CA I/IV / SI CA II/IV: selectivity index, ratio of KIs
Experimental: as §1

[3] = target: hCA XII (Homo sapiens, UniProt O43570); test: Stopped-flow CO2 hydrase assay, hCA XII; conditions: for SI CA I/XII / SI CA II/XII: selectivity index, ratio of KIs
Experimental: as §1

[4] = target: hCA II (Homo sapiens, UniProt P00918); test: Stopped-flow CO2 hydrase assay, hCA II; conditions: for SI CA I/II: selectivity index, ratio of KIs
Experimental: as §1

[5] = target: hCA IX (Homo sapiens, UniProt Q16790); test: Stopped-flow CO2 hydrase assay, hCA IX; conditions: for SI CA I/IX / SI CA II/IX: selectivity index, ratio of KIs
Experimental: as §1

hCA XII, sequence (O43570 25-354): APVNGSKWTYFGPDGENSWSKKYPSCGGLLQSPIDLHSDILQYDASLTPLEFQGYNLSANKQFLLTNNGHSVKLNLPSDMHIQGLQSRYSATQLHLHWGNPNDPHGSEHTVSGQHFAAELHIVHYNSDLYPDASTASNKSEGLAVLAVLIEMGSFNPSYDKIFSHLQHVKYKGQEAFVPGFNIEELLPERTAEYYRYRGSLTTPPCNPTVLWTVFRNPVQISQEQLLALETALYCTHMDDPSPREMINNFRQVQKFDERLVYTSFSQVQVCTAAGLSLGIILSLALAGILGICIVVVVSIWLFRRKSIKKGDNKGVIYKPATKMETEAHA
hCA I, sequence (P00915 whole entry): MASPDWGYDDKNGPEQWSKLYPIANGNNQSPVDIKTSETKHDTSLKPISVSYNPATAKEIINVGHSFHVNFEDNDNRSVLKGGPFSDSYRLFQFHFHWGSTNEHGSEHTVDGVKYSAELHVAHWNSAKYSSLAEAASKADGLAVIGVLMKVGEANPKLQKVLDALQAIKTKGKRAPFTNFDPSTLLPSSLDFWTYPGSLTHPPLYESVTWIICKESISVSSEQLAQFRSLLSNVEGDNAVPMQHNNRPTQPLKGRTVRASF
hCA IV, sequence (P22748 19-312): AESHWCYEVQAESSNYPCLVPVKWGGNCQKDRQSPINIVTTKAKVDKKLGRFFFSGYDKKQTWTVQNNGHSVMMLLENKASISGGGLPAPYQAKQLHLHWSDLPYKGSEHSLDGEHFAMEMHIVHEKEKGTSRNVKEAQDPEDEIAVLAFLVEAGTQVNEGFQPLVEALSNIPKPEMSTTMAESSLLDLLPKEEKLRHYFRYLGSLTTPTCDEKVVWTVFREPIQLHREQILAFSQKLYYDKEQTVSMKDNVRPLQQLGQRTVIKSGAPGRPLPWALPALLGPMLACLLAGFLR

| Structure (SMILES) | Ki [1] [nM] | Ki [2] [nM] | Ki [3] [nM] | SI CA I/XII [3] | SI CA II/XII [3] | Ki [4] [nM] | SI CA I/II [4] | SI CA I/IV [2] | SI CA II/IV [2] | Ki [5] [nM] | SI CA I/IX [5] | SI CA II/IX [5] | melting point [°C] |
| --- | --- | --- | --- | --- | --- | --- | --- | --- | --- | --- | --- | --- | --- |
| COc1cc([N+](=O)[O-])ccc1CNCCc1ccc(S(N)(=O)=O)cc1 [Compound 11, 4-(2-((2-Methoxy-4-nitrobenzyl)amino)ethyl)benzenesulfonamide] | 145 | 1860 | – | – | – | – | – | – | – | – | – | – | – |
| NS(=O)(=O)c1ccc(CCNCc2ccc(Cl)cc2)cc1 [Compound 6, 4-(2-((4-Chlorobenzyl)amino)ethyl)benzenesulfonamide] | 136 | 3680 | 75.2 | 1.8 | 1.5 | 115 | 1.2 | 0.04 | 0.03 | 67.4 | 2.0 | 1.7 | – |
| N#Cc1ccc(CNCCc2ccc(S(N)(=O)=O)cc2)cc1 [Compound 8, 4-(2-((4-Cyanobenzyl)amino)ethyl)benzenesulfonamide] | 91.4 | 1780 | 52.9 | – | – | 70.2 | – | – | – | – | – | – | – |
| COc1ccc(CNCCc2ccc(S(N)(=O)=O)cc2)cc1 [Compound 12, 4-(2-((4-Methoxybenzyl)amino)ethyl)benzenesulfonamide] | 97.2 | 1450 | 57.2 | – | – | – | – | – | – | – | – | – | – |
| COc1ccc(CNCCc2ccc(S(N)(=O)=O)cc2)cc1OC [Compound 13, 4-(2-((3,4-Dimethoxybenzyl)amino)ethyl)benzenesulfonamide] | 88.6 | 1100 | 51 | 0.9 | 1.5 | 75.2 | 1.2 | – | 0.07 | 103 | 0.9 | 0.7 | – |
| NS(=O)(=O)c1ccc(CCNCc2csc3ccccc23)cc1 [Compound 16, 4-(2-((Benzo[b]thiophen-3-ylmethyl)amino)ethyl)benzenesulfonamide] | 374 | 7240 | 69.8 | 5.3 | 2.8 | 202 | 1.9 | 0.05 | 0.03 | 70.5 | 5.3 | 2.8 | – |
| NS(=O)(=O)c1ccc(CCNCc2ccc(Br)cc2)cc1 [Compound 7, 4-(2-((4-Bromobenzyl)amino)ethyl)benzenesulfonamide] | 214 | 5240 | 83.6 | 2.6 | 2.3 | 189 | 1.1 | 0.04 | 0.04 | 86.4 | 2.5 | 2.2 | – |
| CSc1ccc(CNCCc2ccc(S(N)(=O)=O)cc2)cc1 [Compound 14, 4-(2-((4-(Methylthio)benzyl)amino)ethyl)benzenesulfonamide] | 122 | 2130 | 88.6 | – | – | – | – | – | – | 112 | – | – | – |

Second part, the molecule after the results:

| Ki [1] [nM] | Ki [2] [nM] | Ki [3] [nM] | SI CA I/XII [3] | SI CA II/XII [3] | Ki [4] [nM] | SI CA I/II [4] | SI CA I/IV [2] | SI CA II/IV [2] | Ki [5] [nM] | SI CA I/IX [5] | SI CA II/IX [5] | melting point [°C] | Structure (SMILES) |
| --- | --- | --- | --- | --- | --- | --- | --- | --- | --- | --- | --- | --- | --- |
| – | – | – | 597 | 284 | – | – | 7.4 | 3.5 | – | 403 | 192 | 65 to 66 | NS(=O)(=O)c1ccc(CCN(Cc2ccc(Br)cc2)C(=O)c2ccc(-c3cssc3=S)cc2)cc1 [Compound 22, N-(4-Bromobenzyl)-N-(4-sulfamoylphenethyl)-4-(3-thioxo-3H-1,2-dithiol-4-yl)benzamide] |
| – | – | – | 462 | 69.6 | – | – | 18.0 | 2.7 | – | 34.9 | 5.3 | 228 to 229 | NS(=O)(=O)c1ccc(CCN(CCc2ccccc2)C(=O)c2ccc(-c3cssc3=S)cc2)cc1 [Compound 32, N-Phenethyl-N-(4-sulfamoylphenethyl)-4-(3-thioxo-3H-1,2-dithiol-4-yl)benzamide] |
| 771 to 890 | – | – | 79.4 | 49.5 | – | – | 0.18 | 0.11 | – | 19.2 | 11.1 | 139 to 140 | NS(=O)(=O)c1ccc(CCN(Cc2ccccc2)C(=O)c2ccc(-c3cssc3=S)cc2)cc1 [Compound 19, N-Benzyl-N-(4-sulfamoylphenethyl)-4-(3-thioxo-3H-1,2-dithiol-4-yl)benzamide] |
| – | – | – | 226 | 27.9 | – | – | <0.7 | <0.09 | – | 204 | 25.1 | 223 to 224 | NS(=O)(=O)c1ccc(CCN(Cc2ccc([N+](=O)[O-])cc2)C(=O)c2ccc(-c3cssc3=S)cc2)cc1 [Compound 25, N-(4-Nitrobenzyl)-N-(4-sulfamoylphenethyl)-4-(3-thioxo-3H-1,2-dithiol-4-yl)benzamide] |
| – | – | – | 561 | 303 | – | – | 12.8 | 6.9 | – | 229 | 124 | 104 to 105 | NS(=O)(=O)c1ccc(CCN(Cc2ccc(Cl)cc2)C(=O)c2ccc(-c3cssc3=S)cc2)cc1 [Compound 21, N-(4-Chlorobenzyl)-N-(4-sulfamoylphenethyl)-4-(3-thioxo-3H-1,2-dithiol-4-yl)benzamide] |
| – | – | – | >1136 | 548 | – | – | >216.4 | 104 | – | >248 | 120 | 251 to 252 | N#Cc1ccc(CN(CCc2ccc(S(N)(=O)=O)cc2)C(=O)c2ccc(-c3cssc3=S)cc2)cc1 [Compound 23, N-(4-Cyanobenzyl)-N-(4-sulfamoylphenethyl)-4-(3-thioxo-3H-1,2-dithiol-4-yl)benzamide] |
| – | – | – | 448 | 105 | – | – | 1.2 | 0.3 | – | 188 | 43.9 | 185 to 186 | CN(C)c1ccc(CN(CCc2ccc(S(N)(=O)=O)cc2)C(=O)c2ccc(-c3cssc3=S)cc2)cc1 [Compound 24, N-(4-(Dimethylamino)benzyl)-N-(4-sulfamoylphenethyl)-4-(3-thioxo-3H-1,2-dithiol-4-yl)benzamide] |
| – | – | – | 29.0 | 7.7 | – | – | 1.4 | 0.4 | – | 44.0 | 11.7 | 151 to 152 | COc1ccc(CN(CCc2ccc(S(N)(=O)=O)cc2)C(=O)c2ccc(-c3cssc3=S)cc2)cc1 [Compound 27, N-(4-Methoxybenzyl)-N-(4-sulfamoylphenethyl)-4-(3-thioxo-3H-1,2-dithiol-4-yl)benzamide] |
| – | 961 | – | – | – | – | – | – | – | – | – | – | – | CN(C)c1ccc(CNCCc2ccc(S(N)(=O)=O)cc2)cc1 [Compound 9, 4-(2-((4-(Dimethylamino)benzyl)amino)ethyl)benzenesulfonamide] |
| 771 to 890 | – | – | 105 | 25.7 | – | – | 3.0 | 0.7 | – | 47.9 | 11.7 | 183 to 184 | COc1ccc(CN(CCc2ccc(S(N)(=O)=O)cc2)C(=O)c2ccc(-c3cssc3=S)cc2)cc1OC [Compound 28, N-(3,4-Dimethoxybenzyl)-N-(4-sulfamoylphenethyl)-4-(3-thioxo-3H-1,2-dithiol-4-yl)benzamide] |
| – | – | – | 81.5 | 9.2 | – | – | <0.53 | <0.06 | – | 115 | 13.0 | 158 to 159 | NS(=O)(=O)c1ccc(CCN(Cc2ccc(F)cc2)C(=O)c2ccc(-c3cssc3=S)cc2)cc1 [Compound 20, N-(4-Fluorobenzyl)-N-(4-sulfamoylphenethyl)-4-(3-thioxo-3H-1,2-dithiol-4-yl)benzamide] |
| – | – | – | 45.2 | 6.4 | – | – | 0.8 | 0.11 | – | 15.0 | 2.1 | – | N#CCCN(CCc1ccc(S(N)(=O)=O)cc1)C(=O)c1ccc(-c2cssc2=S)cc1 [Compound 33, N-(2-Cyanoethyl)-N-(4-sulfamoylphenethyl)-4-(3-thioxo-3H-1,2-dithiol-4-yl)benzamide] |
